Laboratory results taken from PubChem BioAssay AID248 (DTP/NCI, 2004).
“And” between values parts separate entries of the source, which are not always exact repeats. Identical values can stand only once. Inconclusive results and toxic doses are left out. Rule as the data show it: active = T/C of 150% or more; inactive = T/C below 125%.

Tested on: L1210 leukemia ip in BDF1 mice, survival T/C
Assay: NCI In Vivo Anticancer Drug Screen. Data for tumor model L1210 Leukemia (intraperitoneal) in B6D2F1 (BDF1) mice
Settings: endpoint: mean survival time, higher = longer survival
Outline: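 Survival endpoint. Drug-treated group vs vehicle group, expressed as T divided by C. Tumor passaged by transplantation.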

[1] = dose: 100.0 mg/kg/injection, schedule: Q04DX003 (ip), vehicle: saline with Tween-80
[2] = dose: 200.0 mg/kg/injection, schedule: Q04DX003 (ip), vehicle: saline with Tween-80
[3] = dose: 100.0 mg/kg/injection, schedule: Q04DX003 (ip), vehicle: Klucel (hydroxypropylcellulose) (HPC)
[4] = dose: 200.0 mg/kg/injection, schedule: Q04DX003 (ip), vehicle: Klucel (hydroxypropylcellulose) (HPC)
[5] = dose: 400.0 mg/kg/injection, schedule: Q04DX003 (ip), vehicle: Klucel (hydroxypropylcellulose) (HPC)
[6] = dose: 100.0 mg/kg/injection, schedule: Q04DX003 (ip), vehicle: saline
[7] = dose: 200.0 mg/kg/injection, schedule: Q04DX003 (ip), vehicle: saline
[8] = dose: 100.0 mg/kg/injection, schedule: Q04DX002 (ip), vehicle: Klucel (hydroxypropylcellulose) (HPC)
[9] = dose: 400.0 mg/kg/injection, schedule: Q04DX002 (ip), vehicle: Klucel (hydroxypropylcellulose) (HPC)
[10] = dose: 50.0 mg/kg/injection, schedule: Q01DX009 (ip), vehicle: Klucel (hydroxypropylcellulose) (HPC)
[11] = dose: 100.0 mg/kg/injection, schedule: Q01DX001 (ip), vehicle: Klucel (hydroxypropylcellulose) (HPC)
[12] = dose: 100.0 mg/kg/injection, schedule: Q01DX009 (ip), vehicle: Klucel (hydroxypropylcellulose) (HPC)
[13] = dose: 200.0 mg/kg/injection, schedule: Q04DX002 (ip), vehicle: Klucel (hydroxypropylcellulose) (HPC)
[14] = dose: 100.0 mg/kg/injection, schedule: Q01DX009 (ip), vehicle: saline
[15] = dose: 200.0 mg/kg/injection, schedule: Q01DX001 (ip), vehicle: Klucel (hydroxypropylcellulose) (HPC)
[16] = dose: 200.0 mg/kg/injection, schedule: Q01DX009 (ip), vehicle: saline
[17] = dose: 25.0 mg/kg/injection, schedule: Q01DX009 (ip), vehicle: saline with Tween-80

Measured: T/C

O=C(Nc1ccc(C2=NCCN2)cc1)c1ccc(C(=O)Nc2ccc(C3=NCCN3)cc2)c(O)c1
inactive: dose: 15.0 mg/kg/injection, schedule: Q01DX Z (ip), vehicle: methylcellulose (MC) 96 % of control | dose: 30.0 mg/kg/injection, schedule: Q01DX Z (ip), vehicle: methylcellulose (MC) 98 % of control | dose: 60.0 mg/kg/injection, schedule: Q01DX Z (ip), vehicle: methylcellulose (MC) 93 % of control | dose: 120.0 mg/kg/injection, schedule: Q01DX Z (ip), vehicle: methylcellulose (MC) 93 % of control

C=CC[N+]1=C(C)C(C)(C)c2ccccc21
inactive: [1] 95 % of control | [2] 96 % of control

Cc1cc(C)c(-n2c(-c3ccc(Cl)cc3)nnc2-c2ccc(Br)cc2)c(C)c1
inactive: [3] 101 % of control | [4] 90 % of control | [5] 95 % of control

ClCc1ccccc1CCl
inactive: dose: 5.0 mg/kg/injection, schedule: Q01DX015 (ip), vehicle: carboxymethylcellulose (CMC) 90 % of control | dose: 10.0 mg/kg/injection, schedule: Q01DX015 (ip), vehicle: carboxymethylcellulose (CMC) 87 % of control

CCOC(=O)C(C#N)=C(C)C
inactive: dose: 75.0 mg/kg/injection, schedule: Q01DX001 (ip), vehicle: other 103 % of control | dose: 100.0 mg/kg/injection, schedule: Q01DX001 (ip), vehicle: saline 97 % of control | [6] 97 % of control | [7] 94 % of control

O=S(=O)(O)C(O)CC(c1ccccc1)S(=O)(=O)O (stereo not given)
inactive: [8] 106 % of control | [9] 98 % of control

COC(=O)c1ccc(OC(C)OCCCl)cc1 (stereo not given)
inactive: dose: 100.0 mg/kg/injection, schedule: Q04DX002 (ip), vehicle: saline 93 % of control | dose: 200.0 mg/kg/injection, schedule: Q04DX002 (ip), vehicle: saline 96 % of control | dose: 400.0 mg/kg/injection, schedule: Q04DX002 (ip), vehicle: saline 96 % of control

CCCNC(=O)Sc1ccc(C(C)(C)C)cc1
inactive: dose: 25.0 mg/kg/injection, schedule: Q01DX001 (ip), vehicle: Klucel (hydroxypropylcellulose) (HPC) 91 % of control | dose: 25.0 mg/kg/injection, schedule: Q01DX009 (ip), vehicle: Klucel (hydroxypropylcellulose) (HPC) 95 % of control and 104 % of control | dose: 50.0 mg/kg/injection, schedule: Q01DX001 (ip), vehicle: Klucel (hydroxypropylcellulose) (HPC) 91 % of control | [10] 98 % of control and 112 % of control | [11] 93 % of control | [12] 93 % of control and 102 % of control and 104 % of control | [8] 95 % of control and 89 % of control | [13] 96 % of control and 97 % of control | [9] 92 % of control and 93 % of control

CCOc1cc[n+]([O-])cc1
inactive: dose: 50.0 mg/kg/injection, schedule: Q01DX009 (ip), vehicle: saline 90 % of control | [11] 96 % of control | [14] 90 % of control | [6] 100 % of control | [15] 108 % of control | [16] 90 % of control | [7] 96 % of control

O=S(=O)(OCC#CCOS(=O)(=O)c1ccc(Cl)c(Cl)c1)c1ccc(Cl)c(Cl)c1
inactive: dose: 12.5 mg/kg/injection, schedule: Q01DX009 (ip), vehicle: saline with Tween-80 90 % of control | [17] 90 % of control

Clc1ccc(C2=CC(c3ccccc3)C3CC23)cc1 (stereo not given)
inactive: dose: 100.0 mg/kg/injection, schedule: Q01DX001 (ip), vehicle: saline with Tween-80 92 % of control | dose: 200.0 mg/kg/injection, schedule: Q01DX001 (ip), vehicle: saline with Tween-80 94 % of control | dose: 400.0 mg/kg/injection, schedule: Q01DX001 (ip), vehicle: saline with Tween-80 89 % of control

CC(NC1CCCCC1)C(=O)O (stereo not given)
inactive: dose: 12.5 mg/kg/injection, schedule: Q04DX002 (ip), vehicle: Klucel (hydroxypropylcellulose) (HPC) 93 % of control | dose: 25.0 mg/kg/injection, schedule: Q04DX002 (ip), vehicle: Klucel (hydroxypropylcellulose) (HPC) 96 % of control | dose: 50.0 mg/kg/injection, schedule: Q04DX002 (ip), vehicle: Klucel (hydroxypropylcellulose) (HPC) 89 % of control

CCOC(=O)C1=C(C)NC(=O)NC1c1ccc(N(CCCl)CCCl)cc1 (stereo not given)
inactive: [12] 93 % of control | [3] 97 % of control | dose: 200.0 mg/kg/injection, schedule: Q01DX009 (ip), vehicle: Klucel (hydroxypropylcellulose) (HPC) 112 % of control | [4] 90 % of control | dose: 400.0 mg/kg/injection, schedule: Q01DX009 (ip), vehicle: Klucel (hydroxypropylcellulose) (HPC) 104 % of control | [5] 101 % of control

NC(=O)Cc1ccc2c(c1)[nH]c1ccccc12
inactive: [11] 96 % of control | [3] 102 % of control | [15] 94 % of control | [4] 105 % of control | dose: 400.0 mg/kg/injection, schedule: Q01DX001 (ip), vehicle: Klucel (hydroxypropylcellulose) (HPC) 100 % of control | [5] 103 % of control

C[n+]1ccc(/C=C/c2c[nH]c3ccccc23)cc1
inactive: dose: 6.25 mg/kg/injection, schedule: Q04DX003 (ip), vehicle: saline with Tween-80 92 % of control | dose: 12.5 mg/kg/injection, schedule: Q04DX003 (ip), vehicle: saline with Tween-80 104 % of control | dose: 25.0 mg/kg/injection, schedule: Q04DX003 (ip), vehicle: saline with Tween-80 97 % of control

Nc1nc(N)c(CCCCc2ccccc2)c(N)n1
inactive: [10] 87 % of control | dose: 50.0 mg/kg/injection, schedule: Q01DX Z (ip), vehicle: carboxymethylcellulose (CMC) 95 % of control | [12] 95 % of control

CC(=O)c1cc(O)ccc1O
inactive: [17] 96 % of control | dose: 50.0 mg/kg/injection, schedule: Q01DX009 (ip), vehicle: saline with Tween-80 98 % of control | dose: 100.0 mg/kg/injection, schedule: Q01DX009 (ip), vehicle: saline with Tween-80 98 % of control and 86 % of control | dose: 400.0 mg/kg/injection, schedule: Q01DX009 (ip), vehicle: saline with Tween-80 91 % of control

CCCNC(=O)Oc1cccc(C)c1
inactive: [8] 100 % of control | [13] 106 % of control | [9] 110 % of control

CC1(C)N=C(N)N=C(N)N1c1cccc(Cl)c1Cl
inactive: dose: 5.0 mg/kg/injection, schedule: Q01DX009 (ip), vehicle: saline 95 % of control | dose: 10.0 mg/kg/injection, schedule: Q01DX009 (ip), vehicle: saline 104 % of control | dose: 20.0 mg/kg/injection, schedule: Q01DX009 (ip), vehicle: saline 107 % of control

CN(/N=C/C(O)C(O)C(O)CO)c1ccccc1 (stereo not given)
inactive: [14] 95 % of control | [1] 102 % of control and 98 % of control | [16] 90 % of control | [2] 93 % of control and 96 % of control | dose: 400.0 mg/kg/injection, schedule: Q04DX003 (ip), vehicle: saline with Tween-80 94 % of control and 96 % of control

CC1(C)C=C(C(Cl)c2ccccc2)C(=O)c2ccccc21 (stereo not given)
inactive: [3] 95 % of control | [4] 101 % of control | [5] 101 % of control
